Measured values published in patent US11518746B2, “Nitrogen ring linked deoxyuridine triphosphatase inhibitors” (CV6 Therapeutics (NI) Limited, priority 2016, dated 2022).

How the values were obtained:
[1] = test system: colorectal (HCT116 and SW620) cell line models; test: MTS growth inhibition assay; format: cell-based; conditions: increasing concentrations of 5-FU between 0 and 100 μmol/L
Experimental: The Cell Titer AQueous MTS assay (Promega) is carried out according to the manufacturers guidelines. […] The combination effect is determined by the combination index (CI) method utilizing Calcusyn software (Biosoft, Ferguson, Mo.). Fraction affected (FA) is calculated from the percent growth inhibition: FA=[…]. CI values <1, synergism; 1-1.2, additive and >1.2, antagonism.
Test compounds are evaluated for their antitumor activity in colorectal cancer cells using the MTS growth inhibition assay. HCT116 and SW620 cells are exposed to increasing concentrations of each agent for 72 hours and growth inhibition is directly compared to vehicle-treated controls. The NSCLC cell lines A549 and H1299 are exposed to increasing concentrations of each agent for 72 hours and growth inhibition is directly compared to vehicle-treated controls.
MTS growth inhibition assays are performed to evaluate the effectiveness of the test compounds alone and in combination with the fluoropyrimidine thymidylate synthase (TS) inhibitor 5-fluorouracil (5-FU) at inhibiting the growth of colorectal (HCT116 and SW620) cell line models. […] Simultaneous treatment with increasing concentrations of 5-FU and a test compound at fixed concentrations of 25 μmol/L is determined.

[2] = test system: colorectal (HCT116), breast (MCF-7) and non-small cell lung (H1299, A549, H358 and H460) cell line models; test: Colony forming assay; format: cell-based; conditions: increasing concentrations of FUdR between 0.5 and 2.5 μmol/L
Experimental: Colony forming assay showing the ability of colon (SW620, HCT116), non-small cell lung (A549, H460, H1299 and H358) and breast (MCF7) cancer cells to survive and proliferate following transient 24 hour exposure to test compounds, FUdR and combinations are determined. Specifically, cells are seeded at densities between 50 and 100 cells/well in 24-well plates. Twenty-four hours later, cells are treated with increasing concentrations of a rtest compound, a fixed dose of FUdR and combinations of these. After 24 hours, drug is removed, cells are rinsed and allowed to outgrow for 10-14 days. At the conclusion of the outgrowth, cells are fixed in 60% ice cold methanol and stained with 0.1% crystal violet, scanned and counted. Data is presented as percentage of untreated controls (mean±SD). Fraction affected and combination indexes are calculated according to the method of Chou and Talalay where <1 is indicative of a synergistic drug interaction.
Colony forming assays are performed to evaluate the effectiveness of test compounds alone and in combination with the fluoropyrimidine thymidylate synthase (TS) inhibitor fluorodeoxyuridine (FUdR) at reducing cancer cell viability in colorectal (HCT116), breast (MCF-7) and non-small cell lung (H1299, A549, H358 and H460) cell line models. […]

[3] = target: T1, Recombinant human deoxyuridine nucleotidohydrolase (dUTPase) (Homo sapiens, UniProt P33316); test: dUTPase inhibition, fluorescence-based DNA polymerase assay; format: biochemical; conditions: for % relative inhibition vs. positive control: mean over three concentrations, typically 100, 50 and 25 μmol/L, compared to in-run positive control
T1 construct: made in house
T1 sequence (P33316 1-164 isoform P33316-2): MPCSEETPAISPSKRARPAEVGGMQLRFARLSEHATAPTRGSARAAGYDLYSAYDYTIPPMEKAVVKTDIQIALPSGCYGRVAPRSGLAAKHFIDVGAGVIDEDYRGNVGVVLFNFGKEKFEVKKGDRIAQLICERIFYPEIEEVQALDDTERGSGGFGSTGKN
Text: Recombinant human deoxyuridine nucleotidohydrolase (dUTPase) is expressed and purified as described in Ladner R D, Carr S A, Huddleston M J, McNulty D E, Caradonna S J. J Biol Chem. 1996 Mar. 29; 271(13):7752-7. All drugs stocks are aliquoted and diluted as appropriate prior to use. The oligonucleotide primer, templates and fluorophore- and quencher-labeled detection probes are synthesized by Integrated DNA Technologies (Coralville, Iowa), subjected to polyacrylamide gel electrophoresis purification and reconstituted in Omnipur sterile nuclease-free water (EMD Chemicals USA, Gibbstown N.J.) at a stock concentration of 100 μmol/L. The two non-emissive (dark) quenching molecules incorporated into the detection probes include the Iowa black fluorescein quencher (IBFQ; absorption max 531 nm) and ZEN (non-abbreviation; absorption max 532 nm). The fluorescent label utilized is 6-FAM (5′-carboxyfluorescein; excitation max.=494 nm, emission max.=520 nm). Probes are further diluted to a working stock of 10 μmol/L and aliquoted to avoid repeated freeze/thaw cycles. AmpliTaq Gold DNA Polymerase, GeneAmp 10×PCR Buffer 2, MgCl2 and MicroAmp Optical 96-well Reaction Plates are purchased from Applied Biosystems (Carlsbad, Calif.). dNTPs are purchased individually at stock concentrations of 100 mmol/L from New England Biolabs at HPLC-certified >99% purity (Ipswich, Mass.).
Reaction mixtures contained primer, probe and template at an equimolar final concentration of 0.4 μmol/L. Magnesium chloride (MgCl2) is included at a final concentration of 2 mmol/L. Non-limiting dNTPs are included in the reaction mix in excess at a final concentration of 100 μmol/L (dUTP/dTTP is excluded). AmpliTaq Gold DNA polymerase is added at 0.875 U/reaction, 2.5 μl of 10×PCR buffer 2 added and nuclease-free ddH2O added to a final reaction volume of 25 μl. […] Thermal profiling and fluorescence detection is performed using a customized thermal program on board a Roche Lightcycler LC480 Instrument II. […] Raw fluorescence spectra for 6-FAM is measured at specified time intervals to follow assay progression on board a Roche LightCycler 480 Software Version 1.5 and exported and analyzed in Microsoft Excel (Microsoft, Redmond Wash.) and Prism (GraphPad Software, La Jolla Calif.). Fluorescence values for blank reactions (limiting dNTP omitted) are subtracted to give normalized fluorescence units (NFU) to account for background fluorescence.
Test compounds are screened in a fluorescence-based assay. […] This displacement effectively disrupts the Förster resonance energy transfer (FRET) and the resulting fluorescence detected upon excitation is directly proportional to the amount of the dUTP available in the assay for incorporation. […]

In the case of `O=c1[nH]cc(F)c(=O)[nH]1` [Example 5-FU, 5-fluorouracil], the growth inhibition [1] is reported as “dose-dependent increases in growth inhibition”.

`O=c1[nH]c(=O)n([C@H]2C[C@H](O)[C@@H](CO)O2)cc1F` [FUdR, fluorodeoxyuridine] was tested, and the colonies formed [2] was “dose-dependent decreases in colonies formed”.

In the case of `COc1ccc(NCCCS(=O)(=O)N2CCCC2C(C)c2ccc(F)c(OCC3CC3)c2)c(=O)[nH]1` (stereo not drawn) [Example 80, 3-((3-((2-(1-(3-(cyclopropylmethoxy)-4-fluorophenyl)ethyl)pyrrolidin-1-yl)sulfonyl)propyl)amino)-6-methoxypyridin-2(1H)-one], the “% relative inhibition vs. positive control” value [3] is reported as 22%.

In the case of `O=C1CN(CCCC(=O)N2CCC[C@H]2C(O)(c2ccccc2)c2ccccc2)C(=O)N1` [Example 79, (5)-1-(4-(2-(hydroxydiphenylmethyl)pyrrolidin-1-yl)-4-oxobutyl)imidazolidine-2,4-dione], the IC50 [3] is reported as 1000 nM and the “% relative inhibition vs. positive control” value [3] is reported as 75%.

`CC(c1ccc(F)c(OCC2CC2)c1)C1CCCN1S(=O)(=O)CCCNC1CCC(=O)NC1=O` (stereo not drawn) [Example 82, 3-((3-((2-(1-(3-(cyclopropylmethoxy)-4-fluorophenyl)ethyl)pyrrolidin-1-yl)sulfonyl)propyl)amino)piperidine-2,6-dione] was tested, and the “% relative inhibition vs. positive control” value [3] was 13%.
